Laboratory results reported in patent EP0797564B1, “LIGNANS, A PROCESS FOR THEIR PRODUCTION AND PHARMACEUTICAL COMPOSITIONS AND USES THEREOF” (KANOLDT ARZNEIMITTEL GMBH, priority 1995, dated 1997).

Legend:
[1] = biological target: T1, SHBG (Homo sapiens, UniProt P04278); assay: Concentration dependence: remaining SHBG activity to 5α-dihydrotestosterone (DHT) with varying concentrations of the compounds; assay type: binding; conditions: DHT concentration of 9.6 nM
T1 sequence (P04278 30-402): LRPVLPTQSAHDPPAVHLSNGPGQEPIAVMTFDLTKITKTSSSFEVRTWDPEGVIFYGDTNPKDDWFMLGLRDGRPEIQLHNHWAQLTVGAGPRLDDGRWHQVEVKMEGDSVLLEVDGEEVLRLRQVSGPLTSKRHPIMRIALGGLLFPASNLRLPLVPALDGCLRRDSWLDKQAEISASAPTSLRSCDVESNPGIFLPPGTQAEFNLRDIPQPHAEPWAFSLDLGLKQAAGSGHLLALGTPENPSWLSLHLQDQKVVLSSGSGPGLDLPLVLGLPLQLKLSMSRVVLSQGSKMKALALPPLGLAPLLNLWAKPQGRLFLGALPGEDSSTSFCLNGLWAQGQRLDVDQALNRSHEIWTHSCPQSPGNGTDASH
Protocol: In order to determine the strength of the interaction of the compounds produced according to the present invention, tests were carried out investigating remaining SHBG activity to 5α-dihydrotestosterone (DHT) with varying concentrations of the compounds, DHT being a natural hormone that binds with SHBG.

[2] = biological target: T1, SHBG; assay: Estimation of equilibrium (association) constants Ka inhibitor/SHBG, assuming competitive binding; conditions: association constant inhibitor/SHBG; Table 3
Excerpt: With the assumption of competitive binding the estimation of equilibrium constants is possible. Two reactions exist in competition with one another: [drawing 50] [drawing 51]

| Remaining SHBG Activity ([1]; @ 3.2*10^-4M compound) | Ka [2] | Remaining SHBG Activity ([1]; @ 6*10^-4M compound) | Compound | Remaining SHBG Activity ([1]; @ 6.2*10^-4M compound) |
| --- | --- | --- | --- | --- |
|  |  |  | COc1cc(CC2COC(C)(C)OCC2Cc2ccc(O)c(OC)c2)ccc1O (centres unmarked) [III'a] | 75 % @ 6.2*10^-4M |
| 50 % @ 3.2*10^-4M | 20000 M⁻¹ |  | COc1cc(CC(CO)C(CO)Cc2ccc(O)c(OC)c2)ccc1O (centres unmarked) [IIIa] |  |
|  | 60000 M⁻¹ | 30 % @ 6*10^-4M | COC(=O)C(Cc1ccc(O)c(OC)c1)C(Cc1ccc(O)c(OC)c1)C(=O)OC (centres unmarked) [IIa] |  |
